The values that follow come from PMC12172621 (ACS chemical neuroscience, 2024).

“And” between values parts separate entries of the source, which are not always exact repeats. Equal entries are not always repeated. Where two headings read alike, the source gives them in different places. A value given as a limit tells only on which side of the number the result lay.

For data set [1], the system named is cultured hippocampal neurons exposed to purified RML PrP^Sc. It is filed as cell-based.
The subject of data set [2] is total PrP (PrP^C) in uninfected N2a cells. Format: cell-based, mouse.
Data set [3] has as its system PK-resistant PrP (PrP^Sc) in ScN2a-RML cells. Format: cell-based, mouse. The note with it: read-out: EC50, effective concentration for 50% reduction of PrP^Sc levels in ScN2a-RML cells.
Data set [4] has as its system ScN2a-RML cells.
The nature of data set [5]: in vitro. The note with it: mouse.
Data set [6] concerns the target sigma-2 receptor (σ2R, Tmem97) (Homo sapiens, UniProt Q5BJF2). The data set can be described thus: biochemical. Format: binding.
Data set [7] has as its target sigma-1 receptor (σ1R, Sigmar1) (Homo sapiens, UniProt Q99720). The data set can be described thus: biochemical. It is filed as binding.
Data set [8] relates to PK-resistant PrP in N2a cells chronically infected with 22L prions. It is filed as cell-based, mouse.
Data set [9] deals with PK-resistant PrP in Hrh1^0/0 cells.
Data set [10] concerns PK-resistant PrP in Sigmar1 + Tmem97 KO cells. It is filed as cell-based, mouse.
For data set [11] the following is noted: cited from earlier work.
Data set [12] has as its system seeding activity of RML prions on recombinant bank vole PrP. It is filed as biochemical. The note with it: 2× the EC50 (79 μM).
Data set [13] concerns PK-resistant PrP in Rosa26-targeted ScN2a cells. It is filed as cell-based, mouse.

sigma-1 receptor (σ1R, Sigmar1), sequence (Q99720 whole entry, species assumed): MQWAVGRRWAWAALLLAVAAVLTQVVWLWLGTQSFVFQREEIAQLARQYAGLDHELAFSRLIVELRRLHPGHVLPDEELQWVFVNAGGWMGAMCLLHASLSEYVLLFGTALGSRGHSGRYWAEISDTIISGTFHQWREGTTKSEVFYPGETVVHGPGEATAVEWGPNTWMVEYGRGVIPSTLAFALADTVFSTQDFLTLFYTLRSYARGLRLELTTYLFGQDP
sigma-2 receptor (σ2R, Tmem97), sequence (Q5BJF2 whole entry, species assumed): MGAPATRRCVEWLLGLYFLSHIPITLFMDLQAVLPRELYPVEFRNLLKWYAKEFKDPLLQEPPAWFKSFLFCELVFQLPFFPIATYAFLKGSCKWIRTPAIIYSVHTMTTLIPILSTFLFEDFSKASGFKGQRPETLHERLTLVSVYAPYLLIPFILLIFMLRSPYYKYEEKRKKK

For `O=C(CCCN1CCC(O)(c2ccc(Cl)cc2)CC1)c1ccc(F)cc1` [haloperidol], the “Mean number of dendritic spines/μm” value in data set [1] was 0.85 ± 0.03 spines/μm and 0.73 ± 0.04 spines/μm. In data set [2], the “Levels of total PrP compared to DMSO treatment” value amounted to 92.0 ± 3.5%.

As to `COc1cccc2c1CCCC2CCCN1CCN(C2CCCCC2)CC1` (stereo not drawn) [PB-28], the EC50 in data set [3] stood at 5.1 µM. In data set [1], the “[SRA]min, minimum concentration capable of preventing hippocampal spine retraction” value (from here on “[SRA]min, minimum concentration capable”) is 0.1 µM. The “Levels of total PrP compared to DMSO treatment” value in data set [2] is 85.3 ± 3.4%. The compound further gave a CC50 in [4] of 7.8 µM.

Compound `OC(CCCN1CCN(c2ncc(F)cn2)CC1)c1ccc(F)cc1` (stereo not drawn) [BMY-14802] yielded a CC50 in data set [5] of more than 50 µM.

Consider `CN1CCN(CCc2ccc(Cl)c(Cl)c2)CC1` [BD1063], for which the Ki in [6] (read-out: Kiσ2R) turned out to be 0.123 µM. The “Selectivity for σ1R (σ1R/σ2R)” value in [7] was “σ1R (45.7 x)”. In data set [7] (read-out: Kiσ1R), the Ki turned out to be 0.0027 µM. In addition, the “Levels of PK-resistant PrP relative to DMSO treatment” value in data set [8] worked out at 63.3 ± 1.2%. Further, the EC50 in data set [3] was 12.3 µM. Besides, in data set [1], the “Mean number of dendritic spines/μm” value is 0.69 ± 0.03 spines/μm and 0.63 ± 0.03 spines/μm; the “[SRA]min, minimum concentration capable” value came out at 1 µM. Further, the “Levels of total PrP compared to DMSO treatment” value in data set [2] (12.3 μM) amounted to 85.8 ± 4.4%. Besides, the “Levels of PK-resistant PrP relative to DMSO-treated controls” value in data set [9] was 42.6 ± 6.7%. For the same compound, in data set [4], the CC50 was more than 50 µM and the “TI, therapeutic index (LC50/EC50)” value is reported as more than 4.1. The “Levels of PK-resistant PrP relative to DMSO-treated controls” value in [10] is listed as 60.3 ± 4.0%.

In turn, `C[C@@H]1CN(CCCn2c3ccccc3c3ccccc32)C[C@H](C)N1` [rimcazole] gave a Ki in data set [6] of 0.0496 µM. In addition, in data set [1], the “Mean number of dendritic spines/μm” value is 0.86 ± 0.02 spines/μm and 0.82 ± 0.02 spines/μm; the “[SRA]min, minimum concentration capable” value stood at 0.5 µM. For the same compound, the CC50 in data set [5] was 10 µM.

For the compound `CN(C)CCN(C)CCc1ccc(Cl)c(Cl)c1` [BD1047], the Ki in data set [6] (read-out: Kiσ2R) came out at 0.013 µM. Moreover, the EC50 in [3] stood at 19 µM. Besides, in data set [1], the “Mean number of dendritic spines/μm” value was 0.74 ± 0.02 spines/μm and 0.78 ± 0.04 spines/μm; the “[SRA]min, minimum concentration capable” value was 0.5 µM. Further, the “Levels of total PrP compared to DMSO treatment” value in data set [2] (19 μM) was determined as 94.9 ± 0.9%. Also, the CC50 in [4] is more than 25 µM.

For `CCCCc1oc2ccccc2c1C(=O)c1cc(I)c(OCCN(CC)CC)c(I)c1` [amiodarone], the Ki in data set [6] came out at 0.171 µM.

Consider `CN(C)CC1CCOC1(c1ccccc1)c1ccccc1` (stereo not drawn) [ANAVEX2–73, Blarcamesine], for which the values for the Ki in data set [6] and in data set [7] were 2.03 µM and 0.442 µM, respectively. Also, the “Selectivity for σ1R (σ1R/σ2R)” value in data set [7] is “σ1R (4.5 x)”. Besides, the “Tolerability in phase II trials” value in data set [11] (Alzheimer’s and Parkinson’s diseases) is reported as “well tolerated”. For the same compound, in data set [12], the “Lag phase in RT-QuIC” value was “slight increase in the lag phase”. Further, the “Levels of PK-resistant PrP relative to DMSO-treated controls” value in [13] is 70.4 ± 1.1% and 42.6 ± 1.7%; in data set [9] it was 25.7 ± 6.2%; in data set [10] (39.5 μM), 57.9 ± 9.0%. Besides, the CC50 in data set [5] is more than 50 µM. Besides, the “TI, therapeutic index (LC50/EC50)” value in data set [4] (mouse) is given as more than 1.3.

Turning to `CC(C)=CCN1CC[C@]2(C)c3cc(O)ccc3C[C@H]1[C@H]2C` [(+)-pentazocine], in [5], the CC50 was more than 50 µM.

Compound `Cc1ccccc1NC(=N)Nc1ccccc1C` [DTG, ditolylguanidine] showed a CC50 in [5] of more than 50 µM.

Turning to `CCCN1CCC=C(c2cc(-c3ccc(C)cc3)no2)C1` [PD 144418], the Ki in [6] (read-out: Kiσ2R) worked out at 0.351 µM; in [7] (read-out: Kiσ1R), 0.0011 µM. The “Selectivity for σ1R (σ1R/σ2R)” value in data set [7] is listed as “σ1R (319.1 x)”. The EC50 came out at 12.6 µM in [8] (read-out: EC50 against 22L prions) and 5.2 µM in data set [3]. For the same compound, in data set [1], the “[SRA]min, minimum concentration capable” value came out at 10 µM. For the same compound, the “Levels of total PrP compared to DMSO treatment” value in [2] stood at 97.5 ± 4.8%. The “Levels of PK-resistant PrP relative to DMSO-treated controls” value in [13] worked out at 81.1 ± 5.0%; in data set [10] it was 56.6 ± 5.8%. Besides, in data set [4], the CC50 was more than 22 µM. In addition, the “TI, therapeutic index (LC50/EC50)” value in [4] is more than 4.2.

For the compound `COc1ccc(CCN2CCN(CCCc3ccccc3)CC2)cc1OC` [SA 4503, Cutamesine], in [6] (read-out: Kiσ2R), the Ki came out at 0.0175 µM. In addition, in data set [3], the EC50 came out at 27.2 µM. For the same compound, in data set [11] (ischemic stroke), the “Tolerability in phase II trial” value is reported as “well tolerated”. In data set [4], this compound returned a CC50 of more than 50 µM.
